Counter-ions that a name gives are not always drawn.
Key:
[1] = system: cancer cell line HT29, in which mutated RON (Δ160) is expressed; test: Cell-killing efficacy in RON-mutated cancer cell line HT29 (trypan blue); type: cell-based; details: Homo sapiens, HT-29, 48 hours, trypan blue, n=2, read-out: Cell death (%) Cancer cell line HT29
Protocol: (§1) Experimental Example 4: Measurement of Cell-Killing Efficacy of Example Compounds in RON-Mutated Cancer Cell Lines
(§2) Each of two colorectal cancer cell lines, that is, the cancer cell line HT29 (30038, KCLB, RPMI+10% FBS), in which mutated RON (Δ160) is expressed, and the cancer cell line SW620 (CCL-227, ATCC, RPMI+10% FBS), in which mutated RON (Δ155) is expressed, was dispensed into each 60 mm^2 dish at 1×10^5 cells. After 24 hours, the dish was treated with each of the example compounds at a concentration of 1 μM or 5 μM while performing medium exchange, and then reaction was allowed to proceed for 48 hours. After 48 hours, centrifugation was performed for 4 minutes at 1,500 rpm to collect cells and cell fluid. Thereafter, living cells and dead cells were quantified (n=2) using a trypan blue solution (15250-061, Gibco), and statistical analysis was performed using Excel-T-test. Here, as a negative control, only a solvent (0.10% DMSO) was used; and as a positive control, N-(4-(2-amino-3-chloropyridin-4-yloxy)-3-fluorophenyl)-4-ethoxy-1-(4-fluorophenyl)-2-oxo-1,2-dihydropyridine-3-carboxamide, which is the compound of Example 1 in WO 2008/058229 A1, was used.

[2] = system: cancer cell line KM12C, in which RON is activated; test: Cell-killing efficacy in RON-activated cancer cell line (trypan blue); type: cell-based; details: Homo sapiens, 48 hours, trypan blue, n=2, read-out: Cell death (%) Cancer cell line KM12C
Procedure, shortened: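 KM12C cells seeded 1×10^5 per 60 mm^2 dish in MEM + 10% FBS, then exposed 24 h later to compound at 1 μM or 5 μM for 48 h.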

RON tyrosine kinase = target: T1, RON tyrosine kinase (Homo sapiens, UniProt Q04912); test: Enzyme inhibitory activity against RON tyrosine kinase (TR-FRET); type: biochemical; details: RON (Carna Bioscience)
T1 construct: purchased Carna Bioscience
Procedure, shortened: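 Recombinant RON was preincubated with compound for 15 min at RT in 50 mM HEPES pH 7.5, 10 mM MgCl2, 1 mM EGTA, 2 mM DTT, 0.01% Tween-20. Enzyme (0.4 nM), ATP (60 μM) and tyrosine peptide (400 nM) were prepared at 2×, 4× and 4× final. After 60 min at RT, EDTA/Eu-anti-phosphotyrosine stop; IC50 from 665 nm TR-FRET emission.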

[3] = system: cancer cell line KM12C, in which RON is activated; test: Cell growth inhibitory ability in RON-activated cancer cell line (MTS); type: cell-based; details: Homo sapiens, 48 hours, absorbance 490 nm
Procedure, shortened: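 KM12C cells (RON-activated, MEM with FBS) exposed to compound […] for 48 h. MTS added 24 h after treatment ended, incubated 4 h at 37° C, absorbance read at 490 nm. IC50 derived from absorbance.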

[4] = system: cancer cell line SW620, in which mutated RON (Δ155) is expressed; test: Cell-killing efficacy in RON-mutated cancer cell line SW620 (trypan blue); type: cell-based; details: Homo sapiens, SW-620, 48 hours, trypan blue, n=2, read-out: Cell death (%) Cancer cell line SW620
Protocol: as §1, §2

T1 sequence (Q04912 25-1400): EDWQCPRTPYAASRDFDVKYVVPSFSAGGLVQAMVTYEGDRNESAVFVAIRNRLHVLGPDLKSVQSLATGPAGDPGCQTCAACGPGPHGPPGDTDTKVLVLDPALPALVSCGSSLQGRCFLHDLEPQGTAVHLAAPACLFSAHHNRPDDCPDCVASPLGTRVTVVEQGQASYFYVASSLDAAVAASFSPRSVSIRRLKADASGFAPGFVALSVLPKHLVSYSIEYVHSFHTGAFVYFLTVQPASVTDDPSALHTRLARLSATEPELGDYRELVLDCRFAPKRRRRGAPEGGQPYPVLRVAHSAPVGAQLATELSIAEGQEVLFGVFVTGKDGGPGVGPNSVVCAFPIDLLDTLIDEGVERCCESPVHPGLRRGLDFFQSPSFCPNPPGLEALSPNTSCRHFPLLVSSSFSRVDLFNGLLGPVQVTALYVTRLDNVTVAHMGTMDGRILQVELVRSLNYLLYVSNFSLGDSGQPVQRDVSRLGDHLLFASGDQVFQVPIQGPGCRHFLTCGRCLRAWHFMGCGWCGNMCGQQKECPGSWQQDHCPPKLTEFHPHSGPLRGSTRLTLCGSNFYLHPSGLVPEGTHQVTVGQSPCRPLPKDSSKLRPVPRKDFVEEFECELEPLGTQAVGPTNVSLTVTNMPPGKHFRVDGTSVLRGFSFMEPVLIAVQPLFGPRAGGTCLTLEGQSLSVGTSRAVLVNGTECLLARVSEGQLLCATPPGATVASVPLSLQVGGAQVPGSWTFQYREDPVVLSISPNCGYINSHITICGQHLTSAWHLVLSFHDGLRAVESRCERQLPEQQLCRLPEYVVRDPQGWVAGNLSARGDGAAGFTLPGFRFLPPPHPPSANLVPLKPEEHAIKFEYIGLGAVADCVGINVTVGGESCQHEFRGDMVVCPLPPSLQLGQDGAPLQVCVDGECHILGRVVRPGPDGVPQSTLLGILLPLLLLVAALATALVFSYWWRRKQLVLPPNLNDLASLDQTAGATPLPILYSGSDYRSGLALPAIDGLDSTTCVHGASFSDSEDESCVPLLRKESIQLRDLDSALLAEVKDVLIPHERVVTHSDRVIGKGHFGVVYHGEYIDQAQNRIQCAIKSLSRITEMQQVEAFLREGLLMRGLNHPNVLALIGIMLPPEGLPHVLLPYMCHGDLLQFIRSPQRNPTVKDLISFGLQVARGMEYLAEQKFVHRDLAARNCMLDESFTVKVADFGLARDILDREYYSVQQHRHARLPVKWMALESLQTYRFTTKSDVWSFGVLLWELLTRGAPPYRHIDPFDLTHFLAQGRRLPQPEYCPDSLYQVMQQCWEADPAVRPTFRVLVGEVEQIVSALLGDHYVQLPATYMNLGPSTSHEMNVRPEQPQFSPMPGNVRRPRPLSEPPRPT

SMILES	cytotoxicity at 1 µM [1]	cytotoxicity at 5 µM [1]	cytotoxicity at 1 µM [2]	cytotoxicity at 5 µM [2]	IC50 (RON tyrosine kinase)	IC50 [3]	cytotoxicity at 1 µM [4]	cytotoxicity at 5 µM [4]
COCCNCc1ccc(-c2cc3nccc(Oc4ccc(NC(=O)c5c6c(cn(-c7ccc(F)cc7)c5=O)CCO6)cc4F)c3s2)nc1 [Example 1, N-(3-Fluoro-4-((2-(5-(((2-methoxyethyl)amino)methyl)pyridin-2-yl)thieno[3,2-b]pyridin-7-yl)oxy)phenyl)-5-(4-fluorophenyl)-6-oxo-2,3,5,6-tetrahydrofuro[3,2-c]pyridine-7-carboxamide hydrochloride]	9.35%	38.2%	10.3%	68.6%	0.82 nM	2 nM		
COCCNCc1ccc(-c2cc3nccc(Oc4ccc(NC(=O)c5c6c(cn(-c7ccccc7)c5=O)CCO6)cc4F)c3s2)nc1 [Example 2, N-(3-Fluoro-4-((2-(5-(((2-methoxyethyl)amino)methyl)pyridin-2-yl)thieno[3,2-b]pyridin-7-yl)oxy)phenyl)-6-oxo-5-phenyl-2,3,5,6-tetrahydrofuro[3,2-c]pyridine-7-carboxamide hydrochloride]	15.4%	80.5%	38.4%	93.4%	1.25 nM	67 nM		
CN(C)C1CN(Cc2ccc(-c3cc4nccc(Oc5ccc(NC(=O)c6c7c(cn(-c8ccc(F)cc8)c6=O)CCO7)cc5F)c4s3)nc2)C1 [Example 20, N-(4-((2-(5-((3-(Dimethylamino)azetidin-1-yl)methyl)pyridin-2-yl)thieno[3,2-b]pyridine-7-yl)oxy)-3-fluorophenyl)-5-(4-fluorophenyl)-6-oxo-2,3,5,6-tetrahydrofuro[3,2-c]pyridine-7-carboxamide]			8.12%	35.5%		1 nM	17.4%	91.2%
COC1CCN(Cc2ccc(-c3cc4nccc(Oc5ccc(NC(=O)c6c7c(cn(-c8ccc(F)cc8)c6=O)CCO7)cc5F)c4s3)nc2)CC1 [Example 31, N-(3-Fluoro-4-((2-(5-((4-methoxypiperidin-1-yl)methyl)pyridin-2-yl)thieno[3,2-b]pyridin-7-yl)oxy)phenyl)-5-(4-fluorophenyl)-6-oxo-2,3,5,6-tetrahydrofuro[3,2-c]pyridine-7-carboxamide]			40.9%	52%		2 nM	15.4%	47%
COc1cc2nccc(Oc3ccc(NC(=O)c4c5c(cn(-c6ccc(F)cc6)c4=O)CCO5)cc3F)c2cc1OC [Example 40, N-(4-((6,7-Dimethoxyquinolin-4-yl)oxy)-3-fluorophenyl)-5-(4-fluorophenyl)-6-oxo-2,3,5,6-tetrahydrofuro[3,2-c]pyridine-7-carboxamide]	9.17%	22.9%	29.8%	37.3%	3.21 nM		8.5%	9.2%
Cn1ncc2cc(Oc3ccc(NC(=O)c4c5c(cn(-c6ccc(F)cc6)c4=O)CCO5)cc3F)c(-c3cn[nH]c3)cc21 [Example 64]	16%	18.8%	13.1%	97.1%	14.2 nM			
COc1cc2c(Oc3ccc(NC(=O)c4c5c(cn(-c6ccc(F)cc6)c4=O)CCO5)cc3F)ccnc2cc1OCCCN1CC(F)(F)C1 [Example 87, N-(4-((7-(3-(3,3-Difluoroazetidin-1-yl)propoxy)-6-methoxyquinolin-4-yl)oxy)-3-fluorophenyl)-5-(4-fluorophenyl)-6-oxo-2,3,5,6-tetrahydrofuro[3,2-c]pyridine-7-carboxamide]			40.7%	60.1%		3 nM	77.1%	70.5%
COc1cc2c(Oc3ccc(NC(=O)c4c5c(cn(-c6ccc(F)cc6)c4=O)CCO5)cc3F)ccnc2cc1OCCCN1CCC(F)(F)CC1 [Example 105, N-(4-((7-(3-(4,4-Difluoropiperidin-1-yl)propoxy)-6-methoxyquinolin-4-yl)oxy)-3-fluorophenyl)-5-(4-fluorophenyl)-6-oxo-2,3,5,6-tetrahydrofuro[3,2-c]pyridine-7-carboxamide]			33.8%	45.2%		4 nM	60.4%	84.1%
COc1cc2c(Oc3ccc(NC(=O)c4c5c(cn(-c6ccc(F)cc6)c4=O)CCO5)cc3F)ccnc2cc1OCCN1CC(F)(F)C1 [Example 124, N-(4-((7-(2-(3,3-difluoroazetidin-1-yl)ethoxy)-6-methoxyquinolin-4-yl)oxy)-3-fluorophenyl)-5-(4-fluorophenyl)-6-oxo-2,3,5,6-tetrahydrofuro[3,2-c]pyridine-7-carboxamide]	15.7%	62.1%	16.3%	57.3%		5 nM	6.2%	98.7%
COc1cc2c(Oc3ccc(NC(=O)c4c5c(cn(-c6ccc(F)cc6)c4=O)CCO5)cc3F)ccnc2cc1OCCN1CCS(=O)(=O)CC1 [Example 142, N-(4-((7-(2-(1,1-Dioxidothiomorpholino)ethoxy)-6-methoxyquinolin-4-yl)oxy)-3-fluorophenyl)-5-(4-fluorophenyl)-6-oxo-2,3,5,6-tetrahydrofuro[3,2-c]pyridine-7-carboxamide]			34%	40%		1 nM	74%	67.6%
COc1cc2nccc(Oc3ccc(NC(=O)c4c5c(cn(-c6ccc(F)cc6)c4=O)CCO5)cc3F)c2cc1OCCCN1CCOCC1 [Example 176, N-(3-Fluoro-4-((7-methoxy-6-(3-morpholinopropoxy)quinolin-4-yl)oxy)phenyl)-5-(4-fluorophenyl)-6-oxo-2,3,5,6-tetrahydrofuro[3,2-c]pyridine-7-carboxamide]			4.1%	20.2%	0.1 nM	2 nM		
COc1cc2nccc(Oc3ccc(NC(=O)c4c5c(cn(-c6ccc(F)cc6)c4=O)CCO5)cc3F)c2cc1NC(=O)CCN1CCOCC1 [Example 180, N-(3-Fluoro-4-((7-methoxy-6-(3-morpholinopropanamido)quinolin-4-yl)oxy)phenyl)-5-(4-fluorophenyl)-6-oxo-2,3,5,6-tetrahydrofuro[3,2-c]pyridine-7-carboxamide]			18.1%	20.6%	6.83 nM	3 nM		
COc1cc2c(Oc3ccc(NC(=O)c4c5c(cn(-c6ccc(F)cc6)c4=O)CCO5)cc3F)ccnc2cc1NC(=O)CN1CCOCC1 [Example 182, N-(3-Fluoro-4-((6-methoxy-7-(2-morpholinoacetamido)quinolin-4-yl)oxy)phenyl)-5-(4-fluorophenyl)-6-oxo-2,3,5,6-tetrahydrofuro[3,2-c]pyridine-7-carboxamide]	7.6%	10.2%	25.1%	44.4%	3.35 nM	8 nM		
COc1cc2c(Oc3ccc(NC(=O)c4c5c(cn(-c6ccc(F)cc6)c4=O)CCO5)cc3F)ccnc2cc1NC(=O)CCN1CCOCC1 [Example 183, N-(3-Fluoro-4-((6-methoxy-7-(3-morpholinopropanamido)quinolin-4-yl)oxy)phenyl)-5-(4-fluorophenyl)-6-oxo-2,3,5,6-tetrahydrofuro[3,2-c]pyridine-7-carboxamide]	7.8%	87.5%	27.3%	40.3%	2.5 nM	3 nM		
